Data taken from the supplement of paper PMC10307832.

These cell lines were tested with CC1=CC(=C(N1C2=CC=C(C=C2)Cl)C)C(=O)CN3CCCCC3 [IU1-47] + CC1(C)CCC(c2ccc(Cl)cc2)=C(CN2CCN(c3ccc(C(=O)NS(=O)(=O)c4ccc(N[C@H](CCN5CCOCC5)CSc5ccccc5)c(S(=O)(=O)C(F)(F)F)c4)cc3)CC2)C1 [Navitoclax] (partner 0.5 µM) (assay: relative viability (nuclei count vs DMSO), 5 days (fraction); higher = more cells survive). Conditions: first compound 0.08 µM.
How it was run: (§1)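 A single step with final 0.05% Triton X-100, 1% formaldehyde and 1 ug/ml Hoechst fixed the cells and stained nuclei 5 days after treatment. Lung cancer cell lines in 1536-well plates had been treated by pin tool the day after seeding with one drug alone or a fixed anchor-drug dose plus five library-drug doses (not always all listed) in √10 steps, and nuclei were counted on 4× images. Relative viability is the ratio of nuclei in treated wells to nuclei in vehicle wells, taken as the median of duplicate plates.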

Row | Cell Line | relative viability
1 | NCI-H727 | 0.454
2 | NCI-H1650 | 1.08
3 | EBC-1 | 0.487
4 | NCI-H1703 | 1.06
5 | NCI-H1993 | 0.876
6 | SW 1573 | 1.03
7 | NCI-H838 | 1.25
8 | NCI-H520 | 1.22
9 | NCI-H2126 | 0.987
10 | EMC-BAC-2 | 1.25
11 | NCI-H2085 | 1.15
12 | Calu-6 | 1.07
13 | HCC-366 | 1.07
14 | NCI-H1666 | 1.1
15 | NCI-H596 | 1.05
16 | LK-2 | 1.11
17 | NCI-H2087 | 1.1
18 | SK-MES-1 | 1.21
19 | H3255 | 0.557
20 | COR-L23 | 1.1
21 | IA-LM | 0.758
22 | HCC-44 | 1.14
23 | A549 | 1.23
24 | NCI-H1299 | 1.11
25 | NCI-H1792 | 0.65

Same assay, conditions: first compound 0.253 µM

Row | Cell Line | relative viability
26 | NCI-H1650 | 1.35
27 | EBC-1 | 0.479
28 | NCI-H1703 | 0.961
29 | NCI-H1993 | 0.938
30 | SW 1573 | 1.14
31 | NCI-H838 | 1.21
32 | NCI-H520 | 1.12
33 | NCI-H2126 | 0.823
34 | EMC-BAC-2 | 1.26
35 | NCI-H2085 | 1.22
36 | Calu-6 | 1.01
37 | HCC-366 | 1.09
38 | NCI-H1666 | 1.04
39 | NCI-H596 | 0.961
40 | LK-2 | 0.956
41 | NCI-H2087 | 0.922
42 | SK-MES-1 | 1.34
43 | H3255 | 0.602
44 | COR-L23 | 1.1
45 | IA-LM | 1.08
46 | HCC-44 | 1.01
47 | A549 | 1.27
48 | NCI-H1299 | 1.13
49 | NCI-H1792 | 0.725

Same assay, conditions: first compound 0.8 µM

Row | Cell Line | relative viability
50 | NCI-H727 | 0.597
51 | NCI-H1650 | 1.08
52 | EBC-1 | 0.393
53 | NCI-H1703 | 0.953
54 | NCI-H1993 | 0.893
55 | SW 1573 | 1.04
56 | NCI-H838 | 1.32
57 | NCI-H520 | 1.26
58 | NCI-H2126 | 0.897
59 | EMC-BAC-2 | 1.21
60 | NCI-H2085 | 1.13
61 | Calu-6 | 0.827
62 | HCC-366 | 0.935
63 | NCI-H1666 | 0.89
64 | NCI-H596 | 0.982
65 | LK-2 | 0.893
66 | NCI-H2087 | 1.11
67 | SK-MES-1 | 1.27
68 | H3255 | 0.489
69 | COR-L23 | 1.21
70 | IA-LM | 0.739
71 | HCC-44 | 1
72 | A549 | 1.21
73 | NCI-H1299 | 1.05
74 | NCI-H1792 | 0.76

Same assay, conditions: first compound 2.53 µM

Row | Cell Line | relative viability
75 | NCI-H727 | 0.413
76 | NCI-H1650 | 1.36
77 | EBC-1 | 0.413
78 | NCI-H1703 | 1.44
79 | NCI-H1993 | 0.979
80 | SW 1573 | 0.893
81 | NCI-H838 | 1.27
82 | NCI-H520 | 1.02
83 | NCI-H2126 | 0.545
84 | EMC-BAC-2 | 1.16
85 | NCI-H2085 | 1.19
86 | Calu-6 | 0.867
87 | NCI-H1666 | 0.912
88 | NCI-H596 | 0.869
89 | LK-2 | 0.773
90 | NCI-H2087 | 0.947
91 | SK-MES-1 | 1.29
92 | H3255 | 0.511
93 | COR-L23 | 1.16
94 | IA-LM | 1.05
95 | HCC-44 | 0.908
96 | A549 | 1.26
97 | NCI-H1299 | 1.05
98 | NCI-H1792 | 0.678

Same assay, conditions: first compound 8 µM

Row | Cell Line | relative viability
99 | NCI-H727 | 0.391
100 | NCI-H1650 | 0.918
101 | EBC-1 | 0.299
102 | NCI-H1703 | 1.15
103 | NCI-H1993 | 0.895
104 | SW 1573 | 1.09
105 | NCI-H838 | 1.15
106 | NCI-H520 | 0.981
107 | NCI-H2126 | 0.809
108 | EMC-BAC-2 | 1.04
109 | NCI-H2085 | 1.01
110 | Calu-6 | 0.802
111 | HCC-366 | 1.46
112 | NCI-H1666 | 0.824
113 | NCI-H596 | 1.05
114 | LK-2 | 0.546
115 | NCI-H2087 | 0.99
116 | SK-MES-1 | 1.17
117 | H3255 | 0.446
118 | COR-L23 | 1.22
119 | IA-LM | 0.81
120 | HCC-44 | 0.956
121 | A549 | 1.1
122 | NCI-H1299 | 1.03
123 | NCI-H1792 | 0.251

What follows are cell lines tested with Cc1nc(C(=O)NCC(=O)O)c(O)c2ccc(Oc3ccccc3)cc12 [FG-4592] + COc1cc2c(Oc3ccc(NC(=O)C4(C(=O)Nc5ccc(F)cc5)CC4)cc3F)ccnc2cc1OCCCN1CCOCC1 [Foretinib] (partner 0.25 µM) in the same assay as above. Conditions: first compound 0.08 µM.
How it was run: as §1

Row | Cell Line | relative viability
124 | NCI-H1623 | 0.825
125 | NCI-H727 | 0.934
126 | NCI-H1650 | 1.24
127 | EBC-1 | 0.11
128 | NCI-H1993 | 0.783
129 | SW 1573 | 0.913
130 | NCI-H838 | 1.06
131 | LCLC-103H | 0.716
132 | NCI-H520 | 0.497
133 | NCI-H2126 | 1.14
134 | EMC-BAC-2 | 0.997
135 | NCI-H2085 | 0.837
136 | Calu-6 | 0.907
137 | HCC-366 | 0.926
138 | NCI-H1666 | 0.907
139 | NCI-H596 | 0.814

Row | Cell Line | relative viability
140 | LK-2 | 1.17
141 | NCI-H2087 | 1.19
142 | NCI-H2342 | 1
143 | SK-MES-1 | 1.09
144 | H3255 | 0.848
145 | COR-L23 | 0.856
146 | IA-LM | 1.19
147 | A549 | 1.01
148 | SW 900 | 0.823
149 | NCI-H661 | 1.06
150 | NCI-H1299 | 1.12
151 | NCI-H1563 | 0.995
152 | ABC-1 | 0.938
153 | NCI-H358 | 0.732
154 | NCI-H650 | 0.997

Same assay, conditions: first compound 0.253 µM

Row | Cell Line | relative viability
155 | NCI-H1623 | 0.846
156 | NCI-H727 | 0.617
157 | NCI-H1650 | 0.903
158 | EBC-1 | 0.0946
159 | NCI-H1703 | 0.312
160 | NCI-H1993 | 0.582
161 | SW 1573 | 0.978
162 | NCI-H838 | 0.922
163 | LCLC-103H | 0.671
164 | NCI-H520 | 0.639
165 | NCI-H2126 | 1.13
166 | EMC-BAC-2 | 0.995
167 | NCI-H2085 | 0.696
168 | Calu-6 | 0.887
169 | HCC-366 | 0.844
170 | NCI-H1666 | 0.865

Row | Cell Line | relative viability
171 | NCI-H596 | 0.617
172 | LK-2 | 0.95
173 | NCI-H2087 | 1.02
174 | NCI-H2342 | 1.01
175 | SK-MES-1 | 0.724
176 | H3255 | 0.752
177 | COR-L23 | 0.832
178 | IA-LM | 1.14
179 | A549 | 0.898
180 | SW 900 | 0.947
181 | NCI-H661 | 0.956
182 | NCI-H1299 | 1.06
183 | NCI-H1563 | 0.961
184 | ABC-1 | 0.929
185 | NCI-H358 | 0.632
186 | NCI-H650 | 0.961

Same assay, conditions: first compound 0.8 µM

Row | Cell Line | relative viability
187 | NCI-H1623 | 0.795
188 | NCI-H727 | 1.08
189 | NCI-H1650 | 1.21
190 | EBC-1 | 0.106
191 | NCI-H1703 | 0.34
192 | NCI-H1993 | 0.781
193 | SW 1573 | 0.884
194 | NCI-H838 | 1.08
195 | LCLC-103H | 0.632
196 | NCI-H520 | 0.674
197 | NCI-H2126 | 1.16
198 | EMC-BAC-2 | 1.01
199 | NCI-H2085 | 0.927
200 | Calu-6 | 0.966
201 | HCC-366 | 0.956
202 | NCI-H1666 | 0.939

Row | Cell Line | relative viability
203 | NCI-H596 | 0.764
204 | NCI-H2087 | 1.21
205 | NCI-H2342 | 1.06
206 | SK-MES-1 | 0.779
207 | H3255 | 0.881
208 | COR-L23 | 1.03
209 | IA-LM | 1.18
210 | A549 | 1.03
211 | SW 900 | 1.08
212 | NCI-H661 | 1.09
213 | NCI-H1299 | 1.15
214 | NCI-H1563 | 0.866
215 | ABC-1 | 1.03
216 | NCI-H358 | 0.85
217 | NCI-H650 | 0.882

Same assay, conditions: first compound 2.53 µM

Row | Cell Line | relative viability
218 | NCI-H1623 | 0.731
219 | NCI-H727 | 0.999
220 | NCI-H1650 | 1.33
221 | EBC-1 | 0.0866
222 | NCI-H1703 | 0.321
223 | NCI-H1993 | 0.828
224 | SW 1573 | 0.987
225 | NCI-H838 | 1.06
226 | LCLC-103H | 0.799
227 | NCI-H520 | 0.868
228 | NCI-H2126 | 1.09
229 | EMC-BAC-2 | 1.06
230 | NCI-H2085 | 0.784
231 | Calu-6 | 0.924
232 | HCC-366 | 0.994
233 | NCI-H1666 | 0.963

Row | Cell Line | relative viability
234 | NCI-H596 | 0.867
235 | LK-2 | 1.19
236 | NCI-H2087 | 1.07
237 | NCI-H2342 | 0.959
238 | SK-MES-1 | 0.934
239 | H3255 | 0.903
240 | COR-L23 | 0.982
241 | IA-LM | 1.14
242 | A549 | 0.991
243 | SW 900 | 1.17
244 | NCI-H661 | 0.987
245 | NCI-H1299 | 1.07
246 | NCI-H1563 | 1.01
247 | ABC-1 | 1.03
248 | NCI-H358 | 0.535
249 | NCI-H650 | 0.991

Same assay, conditions: first compound 8 µM

Row | Cell Line | relative viability
250 | NCI-H1623 | 0.724
251 | NCI-H727 | 1.11
252 | NCI-H1650 | 1.04
253 | EBC-1 | 0.1
254 | NCI-H1703 | 0.339
255 | NCI-H1993 | 0.747
256 | SW 1573 | 0.963
257 | NCI-H838 | 0.969
258 | LCLC-103H | 0.769
259 | NCI-H520 | 0.605
260 | NCI-H2126 | 1.15
261 | EMC-BAC-2 | 0.977
262 | NCI-H2085 | 0.881
263 | Calu-6 | 0.758
264 | HCC-366 | 0.863
265 | NCI-H1666 | 0.837
